# According to paper PMC7044277 (Nature Communications, 2020):
# “And” between values parts separate entries of the source, which are not always exact repeats. Equal entries are not always repeated.
# Assays:
# Assay type in all cases: cell-based
# [1] = target: T1, 5HT1F (Homo sapiens, UniProt P30939); experiment: β-arrestin2 recruitment (Tango); conditions: for β-arrestin2 recruitment response, agonist mode (single replicate values): Fig_S10j; for Fig_S10j dose-response, drug alone (agonist mode), β-arrestin2 recruitment: single replicate values
# T1 construct: expressed in transfected cells; host or cells: HTLA cells expressing TEV-fused β-arrestin2
# T1 sequence (P30939 1-366): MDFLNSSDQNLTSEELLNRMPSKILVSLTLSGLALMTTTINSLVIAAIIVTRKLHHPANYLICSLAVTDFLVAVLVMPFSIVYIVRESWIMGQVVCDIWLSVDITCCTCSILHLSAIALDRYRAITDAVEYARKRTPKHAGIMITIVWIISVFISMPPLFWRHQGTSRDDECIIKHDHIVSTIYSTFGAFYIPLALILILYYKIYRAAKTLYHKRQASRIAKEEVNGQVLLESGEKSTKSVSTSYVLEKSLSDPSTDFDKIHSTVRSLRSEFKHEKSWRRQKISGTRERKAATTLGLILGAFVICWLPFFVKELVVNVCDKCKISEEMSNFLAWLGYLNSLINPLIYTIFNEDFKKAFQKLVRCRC
# [2] = target: DRD3 (Homo sapiens, UniProt P35462); experiment: Gαi/o-mediated cAMP inhibition (GloSensor); conditions: DRD3, cAMP inhibition
# Sequence of DRD3 (P35462 whole entry): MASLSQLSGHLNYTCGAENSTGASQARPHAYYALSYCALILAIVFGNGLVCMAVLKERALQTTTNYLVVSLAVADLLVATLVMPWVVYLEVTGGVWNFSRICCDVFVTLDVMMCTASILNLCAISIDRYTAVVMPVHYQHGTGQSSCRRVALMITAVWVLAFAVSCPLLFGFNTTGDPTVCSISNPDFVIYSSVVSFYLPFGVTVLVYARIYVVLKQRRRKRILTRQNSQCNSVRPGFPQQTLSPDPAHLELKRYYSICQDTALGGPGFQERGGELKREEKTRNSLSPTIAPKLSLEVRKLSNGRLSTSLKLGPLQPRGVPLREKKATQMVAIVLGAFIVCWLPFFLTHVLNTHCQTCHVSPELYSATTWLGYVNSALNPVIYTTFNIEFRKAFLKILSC
# [3] = target: DRD2 F1103.28A (Homo sapiens, UniProt P14416, F110A); experiment: β-arrestin2 recruitment (Tango), mutant; design: expressed in transfected cells; host or cells: HEK293T (ATCC CRL-11268)
# Sequence of DRD2 F1103.28A (P14416 whole entry F110A): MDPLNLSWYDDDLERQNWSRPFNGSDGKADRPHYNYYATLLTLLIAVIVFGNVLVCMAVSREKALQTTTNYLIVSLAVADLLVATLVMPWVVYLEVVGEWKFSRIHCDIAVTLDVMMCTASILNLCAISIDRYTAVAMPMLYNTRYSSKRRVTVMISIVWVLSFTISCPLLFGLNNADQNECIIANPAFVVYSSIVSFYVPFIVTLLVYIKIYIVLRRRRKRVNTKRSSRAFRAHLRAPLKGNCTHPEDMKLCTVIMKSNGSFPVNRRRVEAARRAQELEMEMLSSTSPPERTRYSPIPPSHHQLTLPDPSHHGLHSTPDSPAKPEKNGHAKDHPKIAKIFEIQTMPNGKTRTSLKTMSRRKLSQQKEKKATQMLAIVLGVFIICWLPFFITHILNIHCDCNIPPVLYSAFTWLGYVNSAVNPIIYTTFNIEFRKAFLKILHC
# [4] = target: T2, DRD4 (D4.4 variant) (Homo sapiens, UniProt P21917); experiment: β-arrestin2 recruitment (Tango); conditions: for Fig_S10c concentration-response source data, compound alone (replicates): agonist mode
# T2 sequence (P21917 1-419): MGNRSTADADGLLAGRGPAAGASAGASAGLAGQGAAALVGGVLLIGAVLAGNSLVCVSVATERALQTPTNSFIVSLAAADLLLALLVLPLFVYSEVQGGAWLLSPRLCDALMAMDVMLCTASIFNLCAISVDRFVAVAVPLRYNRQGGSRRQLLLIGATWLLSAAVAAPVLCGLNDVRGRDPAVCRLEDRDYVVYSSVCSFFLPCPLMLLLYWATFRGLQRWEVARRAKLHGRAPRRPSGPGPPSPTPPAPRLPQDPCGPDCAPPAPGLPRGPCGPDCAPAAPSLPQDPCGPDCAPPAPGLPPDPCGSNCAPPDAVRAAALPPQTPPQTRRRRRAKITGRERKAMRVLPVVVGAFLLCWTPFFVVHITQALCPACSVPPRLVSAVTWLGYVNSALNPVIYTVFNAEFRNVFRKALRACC
structure (smiles),measurement,setting,value
CCOc1cccc2cc([C@@H](C)NCC3(O)CCCCC3)oc12 [O4RE6],"β-arrestin2 recruitment response, agonist mode (single replicate values)",[1]; Log[Drug] -8,-0.9904 and 0.5932 and 0.4069 and -0.749 and -2.5023 and -1.954 and -1.184 and -1.248 and -0.2773
same,"β-arrestin2 recruitment response, agonist mode (single replicate values)",[1]; Log[Drug] -8.52,0.3187 and 0.8997 and 1.294 and 0.7694 and -1.144 and -0.1941 and 0.6567 and 0.7348 and -0.5451
same,"β-arrestin2 recruitment response, agonist mode (single replicate values)",[1]; Log[Drug] -9,0.2574 and -0.174 and 0.01716 and -1.454 and -1.951 and -2.373 and 1.634 and -1.575 and -0.4734
same,"β-arrestin2 recruitment response, agonist mode (single replicate values)",[1]; Log[Drug] -9.52,-0.956 and -0.4682 and 0.01716 and 8.249 and -1.726 and -1.835 and -1.503 and -0.6631 and 0.5435
same,"β-arrestin2 recruitment response, agonist mode (single replicate values)",[1]; Log[Drug] -10,2.1842 and 2.2749 and -0.3922 and 0.1736 and 1.58 and -1.964 and -1.621 and -1.4329 and 0.0271
same,"β-arrestin2 recruitment response, agonist mode (single replicate values)",[1]; Log[Drug] -10.52,0.6104 and 0.6079 and -0.2672 and -0.6094 and -0.8784 and -1.423 and 0.2215 and -0.4766 and -0.1562
same,"β-arrestin2 recruitment response, agonist mode (single replicate values)",[1]; Log[Drug] -11,-0.2991 and -0.7746 and -0.956 and -0.1975 and -1.559 and -1.001 and -0.7953 and -1.428 and -1.442
same,"β-arrestin2 recruitment response, agonist mode (single replicate values)",[1]; Log[Drug] -11.52,9.046 and 4.9 and 0.09315 and 0.6026 and -0.4766 and -1.413 and -2.451 and -1.372 and 1.5094
same,"β-arrestin2 recruitment response, agonist mode (single replicate values)",[1]; Log[Drug] -12,-1.25 and -0.8555 and 2.1082 and 1.035 and 1.318 and -2.3525 and 0.1164 and 0.6822 and -0.7969
same,"Fig_S10j dose-response, drug alone (agonist mode), β-arrestin2 recruitment",[1]; Log[Drug] -5,1.292 and 2.037 and 1.765 and 2.135 and 0.1634 and 3.054 and 1.165 and -0.4495 and -0.04941
same,"Fig_S10j dose-response, drug alone (agonist mode), β-arrestin2 recruitment",[1]; Log[Drug] -5.52,-0.7085 and 0.2942 and 0.1765 and 0.7149 and -0.06809 and -1.164 and 0.2965 and -1.31 and 0.1036
same,"Fig_S10j dose-response, drug alone (agonist mode), β-arrestin2 recruitment",[1]; Log[Drug] -6,-1.684 and 5.405 and 2.934 and -0.3268 and -0.4664 and -1.437 and 0.7141 and -1.815 and -1.243
same,"Fig_S10j dose-response, drug alone (agonist mode), β-arrestin2 recruitment",[1]; Log[Drug] -6.52,1.461 and 1.956 and 0.6766 and -2.305 and -1.43 and 2.938 and -0.4511 and -1.052 and 1.639
same,"Fig_S10j dose-response, drug alone (agonist mode), β-arrestin2 recruitment",[1]; Log[Drug] -7,-0.5859 and 0.3873 and 1.292 and -1.294 and -0.606 and 1.008 and -0.03666 and -1.56 and -1.246
same,"Fig_S10j dose-response, drug alone (agonist mode), β-arrestin2 recruitment",[1]; Log[Drug] -7.52,-0.7844 and 5.5181 and -0.1961 and 0.48 and -1.147 and -0.875 and -0.2471 and -0.4702 and -1.368
same,EC50,"[2]; agonist, read-out: EC50 ± SEM",0.00712 ± 8e-05 µM
same,G protein agonist activity,[2],partial agonist
same,Emax,[2]; read-out: Emax relative to quinpirole response,52.4%
same,EC50,[3],> 10 µM
same,EC50,"[4]; DRD4, Tango, read-out: EC50 ± SEM",> 10 µM
same,"β-arrestin2 recruitment response at DRD4 (source data, replicate values)",[4]; Log[Drug] -5,6.217 and 2.763 and 2.001 and 1.287 and 1.775 and 4.058 and 4.003 and 0.06427 and 0.2106
same,"Fig_S10c concentration-response source data, compound alone (replicates)",[4]; Log[Drug] -5,5.394 and 8.31 and 11.4353 and 9.275 and 2.582 and 4.074 and 8.729 and 7.933 and 14.0378
same,"β-arrestin2 recruitment response at DRD4 (source data, replicate values)",[4]; Log[Drug] -5.52,2.6039 and -1.106 and -1.946 and -0.4701 and 1.404 and 2.39 and 0.8979 and 0.0552 and 0.08381
same,"Fig_S10c concentration-response source data, compound alone (replicates)",[4]; Log[Drug] -5.52,1.202 and 2.837 and 2.321 and 1.635 and 2.366 and 3.787 and 1.627 and 3.207 and 0.6688
same,"β-arrestin2 recruitment response at DRD4 (source data, replicate values)",[4]; Log[Drug] -6,3.584 and -1.188 and -0.584 and -0.6588 and 0.8796 and 1.83 and 0.7762 and 0.03516 and 0.171
same,"Fig_S10c concentration-response source data, compound alone (replicates)",[4]; Log[Drug] -6,2.086 and 2.7849 and 3.425 and -0.09437 and 0.02849 and 3.5238 and 0.3966 and 3.288 and 1.462
same,"β-arrestin2 recruitment response at DRD4 (source data, replicate values)",[4]; Log[Drug] -6.52,1.007 and 4.325 and 1.323 and -0.8974 and 1.527 and -0.05366 and -0.1047 and 0.03541 and 0.08444
same,"Fig_S10c concentration-response source data, compound alone (replicates)",[4]; Log[Drug] -6.52,1.505 and 1.478 and 5.593 and -1.936 and -0.8155 and 0.5983 and 2.508 and 1.037 and -0.4712
same,"β-arrestin2 recruitment response at DRD4 (source data, replicate values)",[4]; Log[Drug] -7,1.079 and -1.731 and -1.221 and -1.369 and 0.6898 and 0.678 and 1.948 and 0.1059 and 0.1355
same,"Fig_S10c concentration-response source data, compound alone (replicates)",[4]; Log[Drug] -7,2.288 and 4.238 and 0.7634 and -1.02 and 3.3404 and -2.026 and 1.575 and 0.945 and -0.6741
same,"β-arrestin2 recruitment response at DRD4 (source data, replicate values)",[4]; Log[Drug] -7.52,0.371 and -1.716 and -1.784 and -0.5805 and -0.6243 and 1.534 and -0.4267 and 0.02533 and 0.04436
same,"β-arrestin2 recruitment response at DRD4 (source data, replicate values)",[4]; Log[Drug] -8,0.8799 and -0.7087 and -1.711 and -1.318 and -0.195 and -0.3626 and 1.952 and 0.0707 and 0.1967
same,"β-arrestin2 recruitment response at DRD4 (source data, replicate values)",[4]; Log[Drug] -8.52,1.656 and -1.517 and -1.8 and 0.5698 and 0.5353 and -0.6701 and 0.003927 and 0.031 and 0.0242
same,"β-arrestin2 recruitment response at DRD4 (source data, replicate values)",[4]; Log[Drug] -9,0.08244 and -0.5912 and 1.416 and -2.021 and 1.101 and 0.6872 and 0.9463 and -0.03415 and 0.05621
